Data reported in patent publication US9908893B2 (Latvian Institute of Organic Synthesis, priority 2013, dated 2018).
Like-named read-outs stand apart in the source and are kept apart here.

Assays:
[1] = Basal toxicity test, neutral red, alternative LD50 calculated from IC50; details: mouse, LD50, alternative LD50 calculated by formula from IC50 in NIH 3T3 cells
Protocol: A low therapeutic index of chemotherapy agents is due to affecting not only cancer formation but also normal cells.
9,000 NIH 3T3 cells/well were placed into 96-well plates for 24 h and then exposed to the test compound over a range of eight concentration (1-1000 μg/ml) for 24 h. Upon that, the cells were incubated with the neutral red dye for 4 h and then OD was determined at 540 nm. […] The IC50 values were calculated using the program Graph Pad Prism® 4.0

[2] = system: A7R5 (rat aorta smooth muscle) cells; test: Intracellular Ca2+ measurements, Fluo-4 NW Calcium Assay Kit, KCl-induced [Ca2+]i increase; assay type: cell-based; details: for Ca^2+ antagonist effect compared with Verapamil: relative to Verapamil
Protocol: Changes in intracellular [Ca^2+] concentration were studied using A7R5 (rat aorta smooth muscle) cells and Fluo-4 NW Calcium Assay Kit (“Invitrogen”, Sweden) according to manufacturer's instructions.
Changes in intracellular [Ca^2+]i concentration were studied using Fluo-4 NW Calcium Assay Kit (“Invitrogen”, Sweden) accordingly to manufacturer's instructions. The A7R5 (rat aorta smooth muscle) cells were grown at 37° C. in a humidified atmosphere with 5% CO2/95% air in DMEM medium containing 2 mM glutamine and supplemented with 10% FBS. The cells were seeded into 96 well plate at 10,000 cells/well and incubated for 72 h. The cells were loaded with […] for 45 min. The Fura-4NW loaded cells were pre-incubated in the dark for 15 minutes with tested compounds at concentrations from 0.8 to 100 μM. Then A7R5 cells were pre-treated with 1.5 mM CaCl2 for 5 minutes and KCl (50 mM) was added to A7R5 cells to induce [Ca^2+]i increase. Amlodipine, the well-known calcium channel inhibitor was used as the positive control.

[3] = Rattus norvegicus, A7R5, read-out: Ca^2+ A7R5, IC50
[4] = A7R5 cells, KCl (50 mM) induced [Ca2+]i increase, compounds 0.8 to 100 μM

SMILES	LD50 at 24 h [1] [mg/kg]	IC50 [2, 3] [µM]	Ca^2+ antagonist effect compared with Verapamil ([2]; A7R5 cells)	Ca^2+ A7R5, IC50 [2, 4]	IC50 ([2]; A7R5 cells, KCl (50 mM) induced [Ca2+]i increase, compounds 0.8 to 100 μM, read-out: Ca^2+ A7R5, IC50) [µM]
COc1ccc(C(=O)c2sc3nc(C)c(C(C)=O)c(-c4cc(OC)c(OC)c(OC)c4)c3c2N)cc1 [Compound 3, 5-Acetyl-3-amino-2-(4-methoxybenzoyl)-6-methyl-4-(3,4,5-trimethoxyphenyl)-thieno[2,3-b]pyridine]	> 2000	14 ± 0.9	more than ten times lower	–	–
CCCCOC(=O)c1c(C)nc2sc(C(=O)c3ccc(OC)cc3)c(N)c2c1-c1cc(OC)c(OC)c(OC)c1 [Compound 30, 3-Amino-2-(4-methoxybenzoyl)-6-methyl-4-(3,4,5-trimethoxyphenyl)thieno[2,3-b]-pyridine-5-carboxylic acid butyl ester]	> 2000	5 ± 0.7	–	–	–
COC(=O)c1c(C)nc2sc(C(=O)c3ccc(OC)cc3)c(N)c2c1-c1ccc(OC)cc1 [Compound 5, 3-Amino-2-(4-methoxybenzoyl)-4-(4-methoxyphenyl)-6-methyl-thieno[2,3-b]-pyridine-5-carboxylic acid methyl ester]	> 2000	15.4 ± 2	–	–	–
COc1ccc(C(=O)c2sc3nc(C)c(C(C)=O)c(-c4ccc(OC)c(OC)c4)c3c2N)cc1 [Compound 1, 5-Acetyl-3-amino-4-(3,4-dimethoxyphenyl)-2-(4-methoxybenzoyl)-6-methyl-thieno[2,3-b]pyridine]	> 2000	24 ± 1.2	–	–	–
CCOC(=O)c1c(C)nc2sc(C(=O)c3ccc(F)cc3)c(N)c2c1-c1cc(OC)c(OC)c(OC)c1 [Compound 22, 3-Amino-2-(4-fluorobenzoyl)-4-(3,4,5-trimethoxyphenyl)-6-methylthieno[2,3-b]-pyridine-5-carboxylic acid ethyl ester]	> 2000	20 ± 2	more than ten times lower	–	–
COc1ccc(C(=O)c2sc3nc(C)c(C(C)=O)c(-c4ccc(OC)c(OC)c4)c3c2N)c(OC)c1 [Compound 2, 5-Acetyl-3-amino-2-(2,4-dimethoxybenzoyl)-4-(3,4-dimethoxyphenyl)-6-methyl-thieno[2,3-b]pyridine]	> 2000	15 ± 1.1	–	–	–
COCCOC(=O)c1c(C)nc2sc(C(=O)c3ccc(OC)cc3)c(N)c2c1-c1cc(OC)c(OC)c(OC)c1 [Compound 34, 3-Amino-2-(4-methoxybenzoyl)-6-methyl-4-(3,4,5-trimethoxyphenyl)thieno[2,3-b]-pyridine-5-carboxylic acid 2-methoxyethyl ester]	> 2000	3.1 ± 0.4	more than ten times lower	–	–
CCOC(=O)c1c(C)nc2sc(C(=O)c3ccc(OC)cc3)c(N)c2c1-c1ccc(Cl)cc1 [Compound 28, 3-Amino-4-(4-chlorophenyl)-2-(4-methoxybenzoyl)-6-methylthieno[2,3-b]-pyridine-5-carboxylic acid ethylester]	> 2000	> 100	–	–	–
CCOC(=O)c1c(C)nc2sc(C(=O)c3ccc(OC)cc3)c(N)c2c1-c1ccc(OCC)cc1 [Compound 26, 3-Amino-4-(4-ethoxyphenyl)-2-(4-methoxybenzoyl)-6-methylthieno[2,3-b]-pyridine-5-carboxylic acid ethyl ester]	> 2000	> 100	–	–	–
COC(=O)c1c(C)nc2sc(C(=O)c3ccc(OC)cc3OC)c(N)c2c1-c1ccc(OC)c(OC)c1 [Compound 7, 3-Amino-2-(2,4-dimethoxybenzoyl)-4-(3,4-dimethoxyphenyl)-6-methyl-thieno[2,3-b]pyridine-5-carboxylic acid methyl ester]	1040	5.6 ± 1.4	–	–	–
COc1ccc(C(=O)c2sc3nc(C)cc(C)c3c2N)c(OC)c1 [Compound 45, 3-Amino-4,6-dimethyl-2-(2,4-dimetoxybenzoyl)thieno[2,3-b]pyridine]	959	–	–	–	–
COc1ccc(C(=O)c2sc3nc(C)c(C(C)=O)c(-c4cc(OC)c(OC)c(OC)c4)c3c2N)c(OC)c1 [Compound 4, 5-Acetyl-3-amino-2-(2,4-dimethoxybenzoyl)-6-methyl-4-(3,4,5-trimethoxyphenyl)-thieno[2,3-b]pyridine]	1070	–	–	No effect	–
CCOC(=O)c1c(C)nc2sc(C(=O)c3ccc(OC)cc3)c(N)c2c1-c1ccc(OC)cc1 [Compound 17, 3-Amino-2-(4-methoxybenzoyl)-4-(4-methoxyphenyl)-6-methylthieno[2,3-b]-pyridine-5-carboxylic acid ethyl ester]	> 2000	100 ± 11	–	–	–
CCOC(=O)c1c(C)nc2sc(C(=O)c3ccc(Cl)cc3)c(N)c2c1-c1ccc(OC)c(OC)c1 [Compound 19, 3-Amino-2-(4-chlorobenzoyl)-4-(3,4-dimethoxyphenyl)-6-methylthieno[2,3-b]-pyridine-5-carboxylic acid ethyl ester]	> 2000	11 ± 0.7	–	–	–
COCCOC(=O)c1c(C)nc2sc(C(=O)c3ccc(OC)cc3)c(N)c2c1-c1ccc(OC)cc1 [Compound 31, 3-Amino-2-(4-methoxybenzoyl)-4-(4-methoxyphenyl)-6-methylthieno[2,3-b]-pyridine-5-carboxylic acid 2-methoxyethyl ester]	> 2000	21 ± 4	–	–	–
COC(=O)c1c(C)nc2sc(C(=O)c3ccc(Cl)cc3)c(N)c2c1-c1cc(OC)c(OC)c(OC)c1 [Compound 9, 3-Amino-2-(4-chlorobenzoyl)-6-methyl-4-(3,4,5-trimethoxyphenyl)thieno[2,3-b]-pyridine-5-carboxylic acid methyl ester]	1420	3 ± 0.2	–	–	–
CCCOCCOC(=O)c1c(C)nc2sc(C(=O)c3ccc(OC)cc3OC)c(N)c2c1-c1cc(OC)c(OC)c(OC)c1 [Compound 37, 3-Amino-2-(2,4-dimethoxybenzoyl)-6-methyl-4-(3,4,5-trimethoxyphenyl)-thieno[2,3-b]pyridine-5-carboxylic acid 2-propoxyethyl ester]	–	–	–	–	> 100
CCOC(=O)c1c(-c2cc(OC)c(OC)c(OC)c2)nc2sc(C(=O)c3cc(OC)c(OC)c(OC)c3)c(N)c2c1-c1cc(OC)c(OC)c(OC)c1 [Compound 40, 3-Amino-4,6-bis-(3,4,5-trimethoxyphenyl)-2-(3,4,5-trimethoxybenzoyl)-thieno[2,3-b]pyridine-5-carboxylic acid ethyl ester]	> 2000	–	–	No effect	–
CCOC(=O)c1c(C)nc2sc(C(=O)c3ccc(Cl)cc3)c(N)c2c1-c1cc(OC)c(OC)c(OC)c1 [Compound 23, 3-Amino-2-(4-chlorobenzoyl)-4-(3,4,5-trimethoxyphenyl)-6-methylthieno[2,3-b]-pyridine-5-carboxylic acid ethyl ester]	2700	4 ± 0.4	–	–	–
CCOC(=O)c1c(C)nc2sc(C(=O)c3ccc(OC)cc3)c(N)c2c1-c1ccc(OC)c(OC)c1 [Compound 20, 3-Amino-4-(3,4-dimethoxyphenyl)-2-(4-methoxybenzoyl)-6-methylthieno[2,3-b]-pyridine-5-carboxylic acid ethyl ester]	2040	3 ± 0.4	–	–	–
CCOC(=O)c1c(C)nc2sc(C(=O)c3ccc(OC)cc3OC)c(N)c2c1-c1ccc(OC)c(OC)c1 [Compound 21, 3-Amino-2-(2,4-dimethoxybenzoyl)-4-(3,4-dimethoxyphenyl)-6-methyl-thieno[2,3-b]pyridine-5-carboxylic acid ethyl ester]	2360	1.2 ± 0.2	–	–	–
COCCOC(=O)c1c(C)nc2sc(C(=O)c3ccccc3)c(N)c2c1-c1cc(OC)c(OC)c(OC)c1 [Compound 32, 3-Amino-2-benzoyl-6-methyl-4-(3,4,5-trimethoxyphenyl)thieno[2,3-b]pyridine-5-carboxylic acid 2-methoxyethyl ester]	> 2000	2.2 ± 0.3	more than ten times lower	–	–
CCOC(=O)c1c(-c2cc(OC)c(OC)c(OC)c2)nc2sc(C(=O)c3ccc(OC)cc3)c(N)c2c1-c1cc(OC)c(OC)c(OC)c1 [Compound 39, 3-Amino-4,6-bis-(3,4,5-trimethoxyphenyl)-2-(4-methoxybenzoyl)thieno[2,3-b]-pyridine-5-carboxylic acid ethyl ester]	> 2000	–	–	No effect	–
COCCOC(=O)c1c(C)nc2sc(C(=O)c3ccc(OC)cc3OC)c(N)c2c1-c1cc(OC)c(OC)c(OC)c1 [Compound 35, 3-Amino-2-(2,4-dimethoxybenzoyl)-6-methyl-4-(3,4,5-trimethoxyphenyl)-thieno[2,3-b]pyridine-5-carboxylic acid 2-methoxyethyl ester]	> 2000	9 ± 1	more than ten times lower	–	–
CCOC(=O)c1c(C)nc2sc(C(=O)c3ccc(F)cc3)c(N)c2c1-c1ccc(OC)c(OC)c1 [Compound 18, 3-Amino-4-(3,4-dimethoxyphenyl)-2-(4-fluorobenzoyl)-6-methylthieno[2,3-b]-pyridine-5-carboxylic acid ethyl ester]	> 2000	7 ± 1.2	–	–	–
